Measurements reported in US8445501B2, “Substituted 7-carboxamido-pyrrolo[3,2-d]pyrimidines” (Takeda GmbH, priority 2008, dated 2013).

The molecules below were run against T1, human PDE5 (Homo sapiens, UniProt O76074) (assay: Inhibition of the type 5 phosphodiesterase (PDE5) activity, modified SPA test with platelet lysate). Details: PDE5 from human platelet lysate, 0.5 μM cGMP.
T1 construct: from tissue; host or cells: platelets from fresh blood of human donors (lysate, 10,000 g supernatant)
Format: biochemical
How it was run: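 SPA-based cGMP hydrolysis, [3H]cGMP tracer in 0.5 μM cGMP, by sonicated human platelet lysate; motapizone (1 μM) and a PDE2 inhibitor (10 nM) block other PDEs. Reaction 15 min at 37 °C after 5 min preincubation, quenched with beads containing IBMX. IC50 from concentration-effect curves.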
For `COCCOc1cc(OC)ccc1-c1ncnc2c(C(=O)NC3CCN(C(C)=O)CC3)c[nH]c12` [Example 158, 4-[4-Methoxy-2-(2-methoxy-ethoxy)-phenyl]-5H-pyrrolo[3,2-d]pyrimidine-7-carboxylic acid (1-acetyl-piperidin-4-yl)-amide], the IC50 was 24 nM. Molecule `COCCOc1cc(OC)ccc1-c1ncnc2c(C(=O)NC3CCN(C(=O)C4CC4)CC3)c[nH]c12` [Example 159, 4-[4-Methoxy-2-(2-methoxy-ethoxy)-phenyl]-5H-pyrrolo[3,2-d]pyrimidine-7-carboxylic acid (1-cyclopropanecarbonyl-piperidin-4-yl)-amide] has an IC50 of 6.03 nM. In the case of `COCCOc1cc(OC)ccc1-c1ncnc2c(C(=O)NC3CCN(C(=O)COC)CC3)c[nH]c12` [Example 160, 4-[4-Methoxy-2-(2-methoxy-ethoxy)-phenyl]-5H-pyrrolo[3,2-d]pyrimidine-7-carboxylic acid [1-(2-methoxy-acetyl)-piperidin-4-yl]-amide], the IC50 is reported as 23.4 nM. `COCCOc1ccc2c(c1-c1ncnc3c(C(=O)N[C@H]4CC[C@H](NC(C)=O)CC4)c[nH]c13)OCO2` [Example 161, trans-4-[5-(2-Methoxy-ethoxy)-benzo[1,3]dioxol-4-yl]-5H-pyrrolo[3,2-d]pyrimidine-7-carboxylic acid (4-acetylamino-cyclohexyl)-amide] showed an IC50 of 5.25 nM. Work on `COCCOc1ccc2c(c1-c1ncnc3c(C(=O)N[C@H]4CC[C@H](NC(=O)C5CC5)CC4)c[nH]c13)OCO2` [Example 162, trans-4-[5-(2-Methoxy-ethoxy)-benzo[1,3]dioxol-4-yl]-5H-pyrrolo[3,2-d]pyrimidine-7-carboxylic acid (4-(cyclopropanecarbonyl-amino)-cyclohexyl]-amide] yielded an IC50 of 11 nM. For `COCCOc1ccc2c(c1-c1ncnc3c(C(=O)N[C@H]4CC[C@@H](NC(C)=O)CC4)c[nH]c13)OCO2` [Example 164, cis-4-[5-(2-Methoxy-ethoxy)-benzo[1,3]dioxol-4-yl]-5H-pyrrolo[3,2-d]pyrimidine-7-carboxylic acid (4-acetylamino-cyclohexyl)-amide], the IC50 was 7.76 nM. Work on `COCCOc1ccc2c(c1-c1ncnc3c(C(=O)N[C@H]4CC[C@@H](NC(=O)C5CC5)CC4)c[nH]c13)OCO2` [Example 165, cis-4-[5-(2-Methoxy-ethoxy)-benzo[1,3]dioxol-4-yl]-5H-pyrrolo[3,2-d]pyrimidine-7-carboxylic acid [4-(cyclopropanecarbonyl-amino)-cyclohexyl]-amide] yielded an IC50 of 5.89 nM. For `COCCOc1ccc2c(c1-c1ncnc3c(C(=O)N[C@H]4CC[C@@H](NC(=O)COC)CC4)c[nH]c13)OCO2` [Example 166, cis-4-[5-(2-Methoxy-ethoxy)-benzo[1,3]dioxol-4-yl]-5H-pyrrolo[3,2-d]pyrimidine-7-carboxylic acid [4-(2-methoxy-acetylamino)-cyclohexyl]-amide], the IC50 was 10.2 nM. Work on `CCOC(=O)N[C@H]1CC[C@@H](NC(=O)c2c[nH]c3c(-c4c(OCCOC)ccc5c4OCO5)ncnc23)CC1` [Example 167, cis-[4-({4-[5-(2-Methoxy-ethoxy)-benzo[1,3]dioxol-4-yl]-5H-pyrrolo[3,2-d]pyrimidine-7-carbonyl}-amino)-cyclohexyl]-carbamic acid ethyl ester] yielded an IC50 of 5.25 nM. `COCCOc1ccc2c(c1-c1ncnc3c(C(=O)NC4CCN(C(C)=O)CC4)c[nH]c13)OCO2` [Example 168, 4-[5-(2-Methoxy-ethoxy)-benzo[1,3]dioxol-4-yl]-5H-pyrrolo[3,2-d]pyrimidine-7-carboxylic acid (1-acetyl-piperidin-4-yl)-amide] was tested, and the IC50 was 7.94 nM. In the case of `COCCOc1ccc2c(c1-c1ncnc3c(C(=O)NC4CCN(C(=O)C5CC5)CC4)c[nH]c13)OCO2` [Example 169, 4-[5-(2-Methoxy-ethoxy)-benzo[1,3]dioxol-4-yl]-5H-pyrrolo[3,2-d]pyrimidine-7-carboxylic acid (1-cyclopropanecarbonyl-piperidin-4-yl)-amide], the IC50 is reported as 1.74 nM. `COCCOc1ccc2c(c1-c1ncnc3c(C(=O)NC4CCN(C(=O)COC)CC4)c[nH]c13)OCO2` [Example 170, 4-[5-(2-Methoxy-ethoxy)-benzo[1,3]dioxol-4-yl]-5H-pyrrolo[3,2-d]pyrimidine-7-carboxylic acid [1-(2-methoxy-acetyl)piperidin-4-yl]-amide] showed an IC50 of 13.8 nM. `O=C(NC1CCN(C(=O)CO)CC1)c1c[nH]c2c(-c3c(OCC4CC4)ccc4c3OCO4)ncnc12` [Example 171, 4-(5-Cyclopropylmethoxy-benzo[1,3]dioxol-4-yl)-5H-pyrrolo[3,2-d]pyrimidine-7-carboxylic acid [1-(2-hydroxy-ethanoyl)-piperidin-4-yl]amide] showed an IC50 of 0.302 nM. In the case of `O=C(CO)N[C@H]1CC[C@H](NC(=O)c2c[nH]c3c(-c4c(OCC5CC5)ccc5c4OCO5)ncnc23)CC1` [Example 172], the IC50 is reported as 0.112 nM. For `C[C@H](O)C(=O)N[C@H]1CC[C@H](NC(=O)c2c[nH]c3c(-c4c(OCC5CC5)ccc5c4OCO5)ncnc23)CC1` [Example 173], the IC50 was 0.186 nM. Work on `O=C(CO)N[C@H]1CC[C@@H](NC(=O)c2c[nH]c3c(-c4c(OCC5CC5)ccc5c4OCO5)ncnc23)CC1` [Example 174] yielded an IC50 of 0.389 nM. Molecule `C[C@H](O)C(=O)N[C@H]1CC[C@@H](NC(=O)c2c[nH]c3c(-c4c(OCC5CC5)ccc5c4OCO5)ncnc23)CC1` [Example 175] has an IC50 of 0.245 nM. In the case of `C[C@H](O)C(=O)N1CCC(NC(=O)c2c[nH]c3c(-c4c(OCC5CC5)ccc5c4OCO5)ncnc23)CC1` [Example 176, 4-(5-Cyclopropylmethoxy-benzo[1,3]dioxol-4-yl)-5H-pyrrolo[3,2-d]pyrimidine-7-carboxylic acid [1-((S)-2-hydroxy-propanoyl)-piperidin-4-yl]amide], the IC50 is reported as 0.245 nM. With `O=C(N[C@H]1CC[C@H](NC(=O)C2(O)CC2)CC1)c1c[nH]c2c(-c3c(OCC4CC4)ccc4c3OCO4)ncnc12` [Example 177, trans-4-(5-Cyclopropylmethoxy-benzo[1,3]dioxol-4-yl)-5H-pyrrolo[3,2-d]pyrimidine-7-carboxylic acid {4-[(1-hydroxy-cyclopropanecarbonyl)-amino]-cyclohexyl}-amide] the IC50 was 0.123 nM. With `O=C(N[C@H]1CC[C@@H](NC(=O)C2(O)CC2)CC1)c1c[nH]c2c(-c3c(OCC4CC4)ccc4c3OCO4)ncnc12` [Example 178, cis-4-(5-Cyclopropylmethoxy-benzo[1,3]dioxol-4-yl)-5H-pyrrolo[3,2-d]pyrimidine-7-carboxylic acid {4-[(1-hydroxy-cyclopropanecarbonyl)-amino]-cyclohexyl}-amide] the IC50 was 0.229 nM. Molecule `O=C(NC1CCN(C(=O)C2(O)CC2)CC1)c1c[nH]c2c(-c3c(OCC4CC4)ccc4c3OCO4)ncnc12` [Example 179, 4-(5-Cyclopropylmethoxy-benzo[1,3]dioxol-4-yl)-5H-pyrrolo[3,2-d]pyrimidine-7-carboxylic acid {1-[1-(1-hydroxy-cyclopropyl)methanoyl]-piperidin-4-yl}-amide] has an IC50 of 0.182 nM. `O=C(N[C@@H]1CCN(C(=O)CO)C1)c1c[nH]c2c(-c3c(OCC4CC4)ccc4c3OCO4)ncnc12` [Example 180, 4-(5-Cyclopropylmethoxy-benzo[1,3]dioxol-4-yl)-5H-pyrrolo[3,2-d]pyrimidine-7-carboxylic acid [(R)-1-(2-hydroxy-ethanoyl)-pyrrolidin-3-yl]amide] showed an IC50 of 1.2 nM. In the case of `C[C@H](O)C(=O)N1CC[C@@H](NC(=O)c2c[nH]c3c(-c4c(OCC5CC5)ccc5c4OCO5)ncnc23)C1` [Example 181, 4-(5-Cyclopropylmethoxy-benzo[1,3]dioxol-4-yl)-5H-pyrrolo[3,2-d]pyrimidine-7-carboxylic acid [(R)-1-((S)-2-hydroxy-propanoyl)-pyrrolidin-3-yl]amide], the IC50 is reported as 0.589 nM. `O=C(N[C@@H]1CCN(C(=O)C2(O)CC2)C1)c1c[nH]c2c(-c3c(OCC4CC4)ccc4c3OCO4)ncnc12` [Example 182, 4-(5-Cyclopropylmethoxy-benzo[1,3]dioxol-4-yl)-5H-pyrrolo[3,2-d]pyrimidine-7-carboxylic acid {(R)-1-[1-(1-hydroxy-cyclopropyl)-methanoyl]-pyrrolidin-3-yl}-amide] showed an IC50 of 0.479 nM. `O=C(N[C@H]1CCN(C(=O)CO)C1)c1c[nH]c2c(-c3c(OCC4CC4)ccc4c3OCO4)ncnc12` [Example 183, 4-(5-Cyclopropylmethoxy-benzo[1,3]dioxol-4-yl)-5H-pyrrolo[3,2-d]pyrimidine-7-carboxylic acid [(S)-1-(2-hydroxy-ethanoyl)-pyrrolidin-3-yl]amide] gave an IC50 of 1.86 nM. Work on `C[C@H](O)C(=O)N1CC[C@H](NC(=O)c2c[nH]c3c(-c4c(OCC5CC5)ccc5c4OCO5)ncnc23)C1` [Example 184, 4-(5-Cyclopropylmethoxy-benzo[1,3]dioxol-4-yl)-5H-pyrrolo[3,2-d]pyrimidine-7-carboxylic acid [(S)-1-((S)-2-hydroxy-propanoyl)-pyrrolidin-3-yl]amide] yielded an IC50 of 3.16 nM. For `O=C(N[C@H]1CCN(C(=O)C2(O)CC2)C1)c1c[nH]c2c(-c3c(OCC4CC4)ccc4c3OCO4)ncnc12` [Example 185, 4-(5-Cyclopropylmethoxy-benzo[1,3]dioxol-4-yl)-5H-pyrrolo[3,2-d]pyrimidine-7-carboxylic acid {(S)-1-[1-(1-hydroxy-cyclopropyl)-methanoyl]-pyrrolidin-3-yl}-amide], the IC50 was 2.04 nM. `O=C(NCC1CCN(C(=O)CO)CC1)c1c[nH]c2c(-c3c(OCC4CC4)ccc4c3OCO4)ncnc12` [Example 186, 4-(5-Cyclopropylmethoxy-benzo[1,3]dioxol-4-yl)-5H-pyrrolo[3,2-d]pyrimidine-7-carboxylic acid [1-(2-hydroxy-ethanoyl)-piperidin-4-ylmethyl]-amide] gave an IC50 of 0.55 nM. In the case of `C[C@H](O)C(=O)N1CCC(CNC(=O)c2c[nH]c3c(-c4c(OCC5CC5)ccc5c4OCO5)ncnc23)CC1` [Example 187, 4-(5-Cyclopropylmethoxy-benzo[1,3]dioxol-4-yl)-5H-pyrrolo[3,2-d]pyrimidine-7-carboxylic acid [1-((S)-2-hydroxy-propanoyl)piperidin-4-ylmethyl]-amide], the IC50 is reported as 0.457 nM.
